Data set [1] can be described thus: Acute toxicity, LD50. The conditions noted are these: mouse, in vivo, ip; ddY mice, intraperitoneal, Formulation Example 4. The protocol:
To ddY mice (10 animals), a drug containing one of Compound Nos. 1-4, 7, 9 and 10 of the present invention formulated in accordance with Formulation Example 4 was intraperitoneally administered, and the LD50 value was measured and found to be at least 100 mg/kg in each case, and the LD50 value of Compound No. 6 of the invention found to be at least 50 mg/kg.
The Compound No. 2 of the present invention was preliminarily pulverized by a centrifugal pulverizer. On the other hand, 5 parts by weight of polyoxyethylene (60) hardened castor oil, 0.2 part by weight of silicone and 0.3 part by weight of a polyoxyethylene-polyoxypropylene block polymer were added to 79.5 parts by weight of a physiological saline to obtain an aqueous solution, to which 10 parts by weight of the above pulverized Compound No. 2 of the present invention was added. The mixture was pulverized in a wet system by a sand mill using glass beads (80% of particles having a particle size of not larger than 2 μm). Then, 5 parts by weight of xanthane gum (2% solution) was added thereto to obtain an aqueous suspension.

Data set [2] relates to p-388 leukemia cells. Put plainly: Test Example 1 (Intraperitoneal-intraperitoneal) antitumour activity, increase life span. The conditions noted are these: Mus musculus, P388, ip, 720 h. Format: in vivo, BDF1 mice. Here is the method: To BDF1 mice, p-388 leukemia cells were intraperitoneally inoculated in an amount of 1×10^6 cells/mouse. A test drug was intraperitoneally administered twice, i.e. one day and four days after the inoculation. […] The increase life span ILS (%) of each treated group was obtained with the number of survival days of mice of the control group to which a physiological saline was administered, being evaluated as 0. The drugs were dispersions obtained by adding small amounts of surfactants (e.g. Tween-80) to the test compounds.
ILS (%)*: Increase Life Span, calculated in accordance with the following
formula: ILS (%) = MST100, where MST is the ratio of median survival time
of test and control animals.

Data set [3] relates to p-388 leukemia cells. Kind of data set: Test Example 2 (intraperitoneal-oral) antitumour activity, increase life span. Particulars: oral drug, days 1 and 4. Type of data set: in vivo, BDF1 mice. Here is the method: A test drug was orally administered twice i.e. one day and four days after the inoculation.
The mixture was pulverized in a wet system by a sand mill using glass beads (80% of particles having a particle size of not larger than 2 μm). Then, 5 parts by weight of xanthane gum (2% solution) was added thereto to obtain an aqueous suspension.

[4] abbreviates: read-out: ILS (increase life span).
Where [5] appears, read: i.p. drug, days 1 and 4, 100 mg/kg/day, read-out: ILS (increase life span).

SMILES strings stand for the structures. Where two headings read alike, the source gives them in different places. Some results are limits rather than exact numbers.

What is called LD50 is the dose expected to kill half of the subjects tested. High values mean a less toxic substance, low ones a more toxic substance. The term ILS denotes how much longer treated animals lived than controls. Regarding `O=C(NC(=O)c1ccccc1[N+](=O)[O-])Nc1ccc(Oc2ccc(C(F)(F)F)cn2)c([N+](=O)[O-])c1` [Compound No. 9, N-(2-nitrobenzoyl)-N'-[4-(5-trifluoromethyl-2-pyridyloxy)-3-nitrophenyl]urea], the LD50 in data set [1] is at least 100 mg/kg. The ILS at 100 mg/kg/day in data set [2] (setting [4]) was determined as 119%.

`O=C(NC(=O)c1ccccc1Cl)Nc1ccc(Oc2ccc(Cl)nn2)c(Cl)c1` [Comparative Compound No. 3, N--(2chlorobenzoyl)-N'--[3chloro-4-(6-chloro-3-pyridazinyloxy)phenyl]urea, reference compound] gave an ILS at 200 mg/kg/day in data set [2] (i.p. drug, days 1 and 4) of 24%.

Regarding `O=C(NC(=O)c1ccccc1Cl)Nc1ccc(Oc2ncc(Cl)cn2)c([N+](=O)[O-])c1` [Compound No. 4, N-(2-chlorobenzoyl)-N'-[4-(5-chloro-2-pyrimidinyloxy)-3-nitrophenyl]urea], the LD50 in data set [1] was at least 100 mg/kg. For the same molecule, the ILS at 100 mg/kg/day in data set [2] (setting [4]) was 102%.

`O=C(NC(=O)c1ccccc1Cl)Nc1ccc(Oc2ccc(Br)nn2)c(Cl)c1` [Comparative Compound No. 4, N--(2chlorobenzoyl)-N'--[4(6-bromo-3-pyridazinyloxy)-3-chlorophenyl]urea, reference compound]: the ILS at 100 mg/kg/day in data set [2] (setting [5]) is 36%.

As for `O=C(NC(=O)c1ccccc1Cl)Nc1ccc(Oc2ncc(Cl)cn2)c(Cl)c1` [Comparative Compound No. 1, N--(2chlorobenzoyl)-N'--[3chloro-4-(5-chloro-2-pyrimidinyloxy)phenyl]urea], the “ILS (increase life span)” value in data set [3] (800 mg/kg/day) was 11%; in data set [3] (1600 mg/kg/day) it was 24%. The ILS at 100 mg/kg/day in data set [2] (setting [5]) amounted to 33%.

The molecule `O=C(NC(=O)c1ccccc1Cl)Nc1ccc(Oc2ccc(Br)cn2)c(Cl)c1` [Comparative Compound No. 6, N--(2chlorobenzoyl)-N'--[4(5-bromo-2-pyridyl-oxy)-3-chlorophenyl]urea, reference compound] registered an ILS at 200 mg/kg/day in data set [2] (i.p. drug, days 1 and 4) of 50%.

With `O=C(NC(=O)c1ccccc1Br)Nc1ccc(Oc2ncc(I)cn2)c(Cl)c1` [Comparative Compound No. 2, N--(2bromobenzoyl)-N'--[3chloro-4-(5-iodo-2-pyrimidinyloxy)phenyl]urea], the “ILS (increase life span)” value is given as 4% in data set [3] (400 mg/kg/day) and 2% in data set [3] (800 mg/kg/day). Moreover, the ILS at 100 mg/kg/day in data set [2] (setting [5]) amounted to 65%.

For the molecule `O=C(NC(=O)c1ccccc1[N+](=O)[O-])Nc1ccc(Oc2ncc(I)cn2)c(Cl)c1` [compound 7, N--(2nitrobenzoyl)-N'--[3chloro-4-(5-iodo-2-pyrimidinyloxy)phenyl]urea], the “ILS (increase life span)” value in data set [3] (1600 mg/kg/day) is 41%.

Take `O=C(NC(=O)c1ccccc1[N+](=O)[O-])Nc1ccc(Oc2ncc(Cl)cn2)c([N+](=O)[O-])c1` [Compound No. 2, N-(2-nitrobenzoyl)-N'-[4-(5-chloro-2-pyrimidinyloxy)-3-nitrophenyl]urea]: the “ILS (increase life span)” value in data set [3] (200 mg/kg/day) worked out at 90%; in data set [3] (400 mg/kg/day), 108%. This molecule also had an LD50 in data set [1] of at least 100 mg/kg. In addition, the ILS at 50 mg/kg/day in data set [2] (setting [4]) was found to be 134%.

In turn, `O=C(NC(=O)c1ccccc1[N+](=O)[O-])Nc1ccc(Oc2ccc(Cl)cn2)c([N+](=O)[O-])c1` [Compound No. 10, N-(2-nitrobenzoyl)-N'-[4-(5-chloro-2-pyridyloxy)-3nitrophenyl]urea] came in with an LD50 in data set [1] of at least 100 mg/kg. The ILS at 100 mg/kg/day in data set [2] (setting [4]) was 153%.

On to `O=C(NC(=O)c1ccccc1[N+](=O)[O-])Nc1ccc(Oc2ncc(I)cn2)c([N+](=O)[O-])c1` [Compound No. 1, N-(2-nitrobenzoyl)-N'-[4-(5-iodo-2-pyrimidinyloxy)-3-nitrophenyl]urea], for which, in data set [1], the LD50 was at least 100 mg/kg. For the same molecule, the ILS at 50 mg/kg/day in data set [2] (setting [4]) was found to be 111%.

Regarding `O=C(NC(=O)c1ccccc1[N+](=O)[O-])Nc1ccc(Oc2ccc(Br)nn2)c([N+](=O)[O-])c1` [Compound No. 7, N-(2-nitrobenzoyl)-N'-[4-(6-bromo-3-pyridazinyloxy)-3-nitrophenyl]urea], the LD50 in data set [1] was at least 100 mg/kg. The ILS at 100 mg/kg/day in data set [2] (setting [4]) is 152%.

For `O=c1[nH]cc(F)c(=O)[nH]1` [5-Fluorouracil, reference compound], the ILS at 60 mg/kg/day in data set [2] (setting [4]) is 85%.

As to `O=C(NC(=O)c1ccccc1[N+](=O)[O-])Nc1ccc(Oc2ccc(C(F)(F)F)cn2)c(Cl)c1` [Comparative Compound No. 5, reference compound], in data set [2] (setting [5]), the ILS at 100 mg/kg/day was determined as 70%.

`O=C(NC(=O)c1ccc(Cl)cc1[N+](=O)[O-])Nc1ccc(Oc2ncc(Cl)cn2)c([N+](=O)[O-])c1` [Compound No. 6, N-(4-chloro-2-nitrobenzoyl)-N'-[4-(5-chloro-2-pyrimidinyloxy)-3-nitrophenyl]urea] gave an LD50 in data set [1] of at least 50 mg/kg. Also, the ILS at 25 mg/kg/day in data set [2] (setting [4]) was 165%.

On to `O=C(NC(=O)c1ccccc1[N+](=O)[O-])Nc1ccc(Oc2ncc(Br)cn2)c([N+](=O)[O-])c1` [Compound No. 3, N-(2-nitrobenzoyl)-N'-[4-(5-bromo-2-pyrimidinyloxy)-3-nitrophenyl]urea], for which the “ILS (increase life span)” value in data set [3] (200 mg/kg/day) came to 39%; in data set [3] (400 mg/kg/day), 46%. Also, the LD50 in data set [1] is at least 100 mg/kg. For the same molecule, in data set [2] (setting [4]), the ILS at 50 mg/kg/day turned out to be 120%.

For the origin of these results see patent US4677111A, “N-benzoyl-N'-(3-nitrophenyl) urea compounds, and antitumorous compositions containing them” (Ishihara Sangyo Kaisha Ltd., priority 1984, dated 1987).
